Laboratory results taken from PubChem BioAssay (NCI).
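Here, GI50 denotes the concentration required for 50% inhibition of growth. The concentration for full growth arrest is given as TGI.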

What was measured:
Test in all cases: DTP human tumour cell line panel, 384-well format
A498 renal = test system: A498 renal
A549 NSCLC = test system: A549 NSCLC
ACHN renal = test system: ACHN renal
BT-549 breast = test system: BT-549 breast
COLO 205 colon = test system: COLO 205 colon
DU-145 prostate = test system: DU-145 prostate
EKVX NSCLC = test system: EKVX NSCLC
HCC-2998 colon = test system: HCC-2998 colon
HCT-116 colon = test system: HCT-116 colon
HCT-15 colon = test system: HCT-15 colon
HL-60(TB) leukemia = test system: HL-60(TB) leukemia
HOP-62 NSCLC = test system: HOP-62 NSCLC
HOP-92 NSCLC = test system: HOP-92 NSCLC
IGROV1 ovarian = test system: IGROV1 ovarian
KM12 colon = test system: KM12 colon
LOX IMVI melanoma = test system: LOX IMVI melanoma
M14 melanoma = test system: M14 melanoma
MALME-3M melanoma = test system: MALME-3M melanoma
MCF7 breast = test system: MCF7 breast
MDA-MB-231 breast = test system: MDA-MB-231 breast
MDA-MB-435 melanoma = test system: MDA-MB-435 melanoma
MDA-MB-468 breast = test system: MDA-MB-468 breast
MOLT-4 leukemia = test system: MOLT-4 leukemia
NCI-H226 lung = test system: NCI-H226 lung
NCI-H23 lung = test system: NCI-H23 lung
NCI-H322M lung = test system: NCI-H322M lung
NCI-H460 NSCLC = test system: NCI-H460 NSCLC
NCI-H522 lung = test system: NCI-H522 lung
NCI/ADR-RES ovarian = test system: NCI/ADR-RES ovarian
OVCAR-3 ovarian = test system: OVCAR-3 ovarian
OVCAR-4 ovarian = test system: OVCAR-4 ovarian
OVCAR-5 ovarian = test system: OVCAR-5 ovarian
PC-3 prostate = test system: PC-3 prostate
RPMI-8226 leukemia = test system: RPMI-8226 leukemia
RXF 393 renal = test system: RXF 393 renal
SF-268 CNS = test system: SF-268 CNS
SF-295 CNS = test system: SF-295 CNS
SF-539 CNS = test system: SF-539 CNS
SK-MEL-28 melanoma = test system: SK-MEL-28 melanoma
SK-MEL-5 melanoma = test system: SK-MEL-5 melanoma
SN12C renal = test system: SN12C renal
SNB-19 CNS = test system: SNB-19 CNS
SNB-75 CNS = test system: SNB-75 CNS
SR leukemia = test system: SR leukemia
T-47D breast = test system: T-47D breast
TK-10 renal = test system: TK-10 renal
U251 glioblastoma = test system: U251 glioblastoma
UACC-257 melanoma = test system: UACC-257 melanoma
UACC-62 melanoma = test system: UACC-62 melanoma

CCNC(=O)C[C@@H]1N=C(c2ccc(Cl)cc2)c2cc(OC)ccc2-n2c(C)nnc21
GI50 (A498 renal): 662 nM | TGI (A498 renal): 81.7 µM | GI50 (A549 NSCLC): 7.42 µM | TGI (A549 NSCLC): > 100 µM | GI50 (ACHN renal): 3.55 µM | TGI (ACHN renal): > 100 µM | GI50 (BT-549 breast): 375 nM | TGI (BT-549 breast): 23.3 µM | GI50 (COLO 205 colon): 496 nM | TGI (COLO 205 colon): 15.6 µM | GI50 (DU-145 prostate): 12.8 µM | TGI (DU-145 prostate): > 100 µM | GI50 (EKVX NSCLC): 25.4 µM | TGI (EKVX NSCLC): > 100 µM | GI50 (HCC-2998 colon): 86.1 nM | TGI (HCC-2998 colon): 10.8 µM | GI50 (HCT-116 colon): 4.23 µM | TGI (HCT-116 colon): > 100 µM | GI50 (HCT-15 colon): 613 nM | TGI (HCT-15 colon): 15 µM | GI50 (HL-60(TB) leukemia): 25.7 nM | TGI (HL-60(TB) leukemia): 131 nM | GI50 (HOP-62 NSCLC): 246 nM | TGI (HOP-62 NSCLC): 13.8 µM | GI50 (HOP-92 NSCLC): 26.4 µM | TGI (HOP-92 NSCLC): > 100 µM | GI50 (IGROV1 ovarian): 394 nM | TGI (IGROV1 ovarian): 16.7 µM | GI50 (KM12 colon): 5.56 µM | TGI (KM12 colon): > 100 µM | GI50 (LOX IMVI melanoma): 196 nM | TGI (LOX IMVI melanoma): 551 nM | GI50 (M14 melanoma): 2350 nM | TGI (M14 melanoma): 55.2 µM | GI50 (MALME-3M melanoma): 12.3 µM | TGI (MALME-3M melanoma): 65.9 µM | GI50 (MCF7 breast): < 10 nM | TGI (MCF7 breast): > 100 µM | GI50 (MDA-MB-231 breast): 5.87 µM | TGI (MDA-MB-231 breast): > 100 µM | GI50 (MDA-MB-435 melanoma): 8.67 µM | TGI (MDA-MB-435 melanoma): 77.6 µM | GI50 (MDA-MB-468 breast): 8.18 µM | TGI (MDA-MB-468 breast): > 100 µM | GI50 (MOLT-4 leukemia): 599 nM | TGI (MOLT-4 leukemia): 15.7 µM | GI50 (NCI-H226 lung): 1630 nM | TGI (NCI-H226 lung): 27.7 µM | GI50 (NCI-H23 lung): 2770 nM | TGI (NCI-H23 lung): > 100 µM | GI50 (NCI-H322M lung): 620 nM | TGI (NCI-H322M lung): 34.6 µM | GI50 (NCI-H460 NSCLC): 4.05 µM | TGI (NCI-H460 NSCLC): > 100 µM | GI50 (NCI-H522 lung): 213 nM | TGI (NCI-H522 lung): 5.39 µM | GI50 (NCI/ADR-RES ovarian): 11.4 µM | TGI (NCI/ADR-RES ovarian): 36.2 µM | GI50 (OVCAR-3 ovarian): 324 nM | TGI (OVCAR-3 ovarian): 14.8 µM | GI50 (OVCAR-4 ovarian): 137 nM | TGI (OVCAR-4 ovarian): 899 nM | GI50 (OVCAR-5 ovarian): 296 nM | TGI (OVCAR-5 ovarian): 18.7 µM | GI50 (PC-3 prostate): 714 nM | TGI (PC-3 prostate): > 100 µM | GI50 (RPMI-8226 leukemia): 74.7 nM | TGI (RPMI-8226 leukemia): 992 nM | GI50 (RXF 393 renal): 26 µM | TGI (RXF 393 renal): > 100 µM | GI50 (SF-268 CNS): 22.5 µM | TGI (SF-268 CNS): > 100 µM | GI50 (SF-295 CNS): 21.6 µM | TGI (SF-295 CNS): > 100 µM | GI50 (SF-539 CNS): 2250 nM | TGI (SF-539 CNS): > 100 µM | GI50 (SK-MEL-28 melanoma): 14.1 µM | TGI (SK-MEL-28 melanoma): > 100 µM | GI50 (SK-MEL-5 melanoma): 492 nM | TGI (SK-MEL-5 melanoma): 18.2 µM | GI50 (SN12C renal): 742 nM | TGI (SN12C renal): > 100 µM | GI50 (SNB-19 CNS): 1630 nM | TGI (SNB-19 CNS): > 100 µM | GI50 (SNB-75 CNS): 28.3 µM | TGI (SNB-75 CNS): > 100 µM | GI50 (SR leukemia): < 10 nM | TGI (SR leukemia): 58 µM | GI50 (T-47D breast): 15.4 µM | TGI (T-47D breast): > 100 µM | GI50 (TK-10 renal): 480 nM | TGI (TK-10 renal): 28.6 µM | GI50 (U251 glioblastoma): 9.26 µM | TGI (U251 glioblastoma): > 100 µM | GI50 (UACC-257 melanoma): 423 nM | TGI (UACC-257 melanoma): 30.3 µM | GI50 (UACC-62 melanoma): < 10 nM | TGI (UACC-62 melanoma): > 100 µM
